# Laboratory results as given in US11382873B1, “Oral administration of ketamine” (Vitalis Analgesics LLC, priority 2021, dated 2022).
# Read-outs that look alike come from different tables or passages of the source.
# Assays:
# [1] = cited from earlier work
# [2] = test system: adult emergency department (ED) patients with acute musculoskeletal pain; assay: Reduction of acute musculoskeletal pain (NRS) in adult ED patients, trial of Example 1/5; conditions: NRS 0-10, 60 minutes post medication; doses of Table 1 (dual route ketamine 0.5 mg/kg + aspirin 325 mg; IV ketamine 0.3 mg/kg; IV morphine 0.1 mg/kg; MSIR 15 mg; Percocet 10 mg); comparators from similar trials, same center and protocol; FIG. 1
# [3] = cited from earlier work; remark: listed apart in the source
structure (smiles),measurement,setting,value
CNC1(c2ccccc2Cl)CCCCC1=O (stereo not drawn) [ketamine],Bioavailability,[1]; IV,about 100%
same,Elimination half-life,[1]; in vivo,2 to 3 h
same,Bioavailability,[1]; intramuscular injection,about 93%
same,"Delay of serum peak concentration, GI absorption versus direct (oral mucosal) absorption","[1]; ketamine given concurrently through the GI, patent's own reasoning, no PK data shown",15 to 20 min
same,Bioavailability,[1]; oral route,18-20%
same,Time at which maximal concentrations are reached,[1]; orally,30 min
"CC(C)Cc1ccc(C(C)C(=O)O)cc1 (stereo not drawn) [oral ibuprofen, Ibuprofen]",Reduction of acute musculoskeletal pain,[2],2 points
NC1(c2ccccc2Cl)CCCCC1=O (stereo not drawn) [norketamine],Plasma levels of the metabolite relative to ketamine,[1]; following oral administration of ketamine,three times higher
"CN1CC[C@]23c4c5ccc(O)c4O[C@H]2[C@@H](O)C=C[C@H]3[C@H]1C5.O=S(=O)(O)O [oral morphine, Morphine Sulfate]",Reduction of acute musculoskeletal pain,[2],about 4 points
"CN1CC[C@]23c4c5ccc(O)c4O[C@H]2[C@@H](O)C=C[C@H]3[C@H]1C5 [IV morphine, Morphine]",Reduction of acute musculoskeletal pain,[2],5.1 points
"CNC1(c2ccccc2Cl)CCCCC1=O (stereo not drawn) [intranasal (nebulized) ketamine, ketamine]",Reduction of acute musculoskeletal pain,[2],about 4 points
"N[C@@H]1c2cccnc2[C@H](OC(=O)N2CCC(n3c(=O)[nH]c4ncccc43)CC2)CC[C@H]1c1cccc(F)c1F [rimegepant, Rimegepant]",Absolute oral bioavailability,"[3]; in vivo, po",approximately 64%
same,Eliminated in unchanged form,[3]; in vivo,~77 % of the dose
same,"Major metabolites (i.e., >10%) detected in plasma",[3]; in vivo,no major metabolites
same,Time of maximum concentration,[3]; oral administration of NURTEC Orally Disintegrating Tablet,1.5 h
